In patent US20210023089A1, “Compositions Useful for Treating Herpes Simplex Keratitis, and Methods Using Same” (priority 2013, published 2021):

Legend:
Type in all cases: cell-based, HSV-1 (KOS strain)
HSV-1 [1] = experiment: HSV-1 cytopathic effect in infected hTCEpi cells (phase contrast); settings: MOI 0.1, inhibitor 10 μM, 20 hpi
Protocol: (§1) All cells were cultured at 37° C. and 5% CO2 and supplemented with 100 U/mL penicillin and […]. Human corneal epithelial cells immortalized with hTERT (hTCEpi; Robertson, et al., 2005, Invest Ophthalmol Vis Sci. 46:470-478) were grown in complete keratinocyte growth medium 2 (KGM-2; Lonza, Basel, Switzerland). African green monkey kidney fibroblasts (CV-1; American Type Culture Collection, Manassas, Va.) were grown in Dulbecco's modified Eagle's medium (DMEM; Cellgro, Manassas, Va.) supplemented with 10% FBS. The KOS strain of HSV-1 was used in the in vitro and ex vivo infections, whereas McKrae strain was used for in vivo mouse experiments, and TK mutant dlsptk strain (Coen et al., 1989, Proc Natl Acad Sci USA 86:4736-4740) was used in the drug resistance experiments. All viral stocks were titered on CV-1 monolayers.
(§2) The following strains of HSV-1 were used: KOS, ICPO-null, HFEM, and tsB7. Subconfluent monolayers of cells were grown in six-well plates. Drug treatments were administered 45 minutes prior to infection and continued for the entire duration of each experiment. Unless indicated otherwise, KU-55933 (Batch No. 5, 99.7% purity; Tocris Bioscience, Bristol, UK) was used at 10 μM final concentration, phosphonoacetic acid (PAA) at 400 μg/mL (Sigma-Aldrich, St. Louis, Mo.), and acyclovir at 50 μg/mL (Sigma-Aldrich). […]

HSV-1 [2] = experiment: Plaque assay of supernatants from HSV-1 infected hTCEpi cells
Protocol: as §1, §2

HSV-1 [3] = experiment: qPCR of viral genome replication in HSV-1 infected hTCEpi cells; settings: for viral genome replication (qPCR): MOI 0.1, inhibitor 10 μM
Protocol: The following strains of HSV-1 were used: KOS, ICPO-null, HFEM, and tsB7. Subconfluent monolayers of cells were grown in six-well plates. Drug treatments were administered 45 minutes prior to infection and continued for the entire duration of each experiment. Unless indicated otherwise, KU-55933 (Batch No. 5, 99.7% purity; Tocris Bioscience, Bristol, UK) was used at 10 μM final concentration, phosphonoacetic acid (PAA) at 400 μg/mL (Sigma-Aldrich, St. Louis, Mo.), and acyclovir at 50 μg/mL (Sigma-Aldrich). KU-55933 was dissolved in dimethyl sulfoxide (DMSO), and the final concentration of DMSO in both KU-55933 and mock treatment in the in vitro and the ex vivo experiments was 0.1%.
Infections with KOS strain of HSV-1 were carried out in six-well plates in a 200 μL inoculum volume at 37° C. for 1 hour with intermittent rocking. The cells were then rinsed and overlaid with fresh medium.
Cells were grown in 6-well plates and used in experiments at −80% confluence. Drug treatments were administered 45 min prior to infection and continued for the entire duration of each experiment. Unless indicated otherwise, Chk2 inhibitor II (>98% purity by HPLC) was used at 10 μM final concentration, and phosphonoacetic acid (PAA) at 400 μg/ml (both from Sigma-Aldrich, St. Louis, Mo.). Chk2 inhibitor II was dissolved in DMSO such that the final concentration of DMSO in both Chk2 inhibitor II and mock treatment was 0.1%. Infections with KOS strain of HSV-1 were carried out in 6-well plates in a 200 μl inoculum volume at 37° C. for 1 hour with intermittent rocking. The cells were then thoroughly rinsed and overlaid with fresh medium.
Total DNA from infected cells and corneas was isolated using the DNeasy Blood & Tissue Kit (QIAGEN, Hilden, Germany). Real time quantitative PCR was performed with SYBR Green (Bio-Rad, Hercules, Calif.). Target primers for UL30 (DNA polymerase catalytic subunit) and reference primers for GAPDH were used to measure viral genome abundance. Primer sequences were based on the KOS genome (accession #JQ673480.1).

HSV-1 [4] = experiment: Ex vivo HSV-1 infection of explanted human corneas, qPCR of viral genome; settings: 48 hpi; for viral genome replication in corneal epithelium (qPCR): 1×10^4 PFU/cornea
Protocol: (§3) Human corneas were obtained from the Lions Eye Bank of Delaware Valley. Rabbit corneas were excised from intact fresh eyeballs of young (8-12 weeks) albino rabbits (Pel-Freez Biologicals, Rogers, Ark.). Protocol (Alekseev et al., 2012, J Vis Exp 69:e3631) for ex vivo corneal culture, infection, and treatment was followed closely. Briefly, corneoscleral buttons were excised and rinsed in PBS containing 200 U/mL penicillin and 200 μg/mL streptomycin. The endothelial concavity was filled with culture medium containing 1% low melting temperature agarose. The corneas were cultured epithelial side up in MEM medium supplemented with nonessential amino acids (1×), 2 mM […], 200 U/mL penicillin, and 200 μg/mL streptomycin. The next day, they were infected with 1×10^4 plaque forming units (PFU)/cornea of strain KOS HSV-1 for 1 hour, rinsed, and overlaid with fresh medium. Drug treatments were administered at the same concentrations as for cultured cells. For KU-55933 bioavailability assessment, corneas were treated with bleomycin (200 μg/mL) for 1 hour. The epithelial cell layer was collected by scraping to isolate DNA or protein. For immunohistochemistry studies, corneas were flash frozen in optimal cutting temperature (OCT) compound, sectioned, and immunostained using standard protocols. Treatment toxicity was assessed by briefly staining the cornea with fluorescein (1% wt/vol in PBS) and imaging the epithelial defects with 464-nm wavelength blue light (LDP LLC, Carlstadt, N.J.).
(§4) Viral genome replication and transcription were measured by quantitative PCR (qPCR). Total DNA and RNA from infected cells were isolated using the DNeasy Blood & Tissue Kit and the RNeasy Mini Kit, respectively (QIAGEN, Hilden, Germany). RNA was converted to cDNA using qScript (Quanta BioSciences, Gaithersburg, Md.). Real-time qPCR was performed with SYBR Green (Bio-Rad, Hercules, Calif.). Target primers for UL30 (DNA polymerase catalytic subunit) and reference primers for glyceraldehyde 3-phosphate dehydrogenase (GAPDH) were used to measure genome replication. Transcription of the three gene families was measured with primers for RL2 (ICPO), UL30 (DNA polymerase catalytic subunit), and UL44 (gC), with reference primers for the 18S ribosomal RNA (rRNA).
Human corneas were obtained from the Lions Eye Bank of Delaware Valley. Rabbit corneas were excised from intact fresh eyeballs of young (8-12 weeks) albino rabbits (Pel-Freez Biologicals, Rogers, Ark.). […]
(§5) Total DNA from infected cells and corneas was isolated using the DNeasy Blood & Tissue Kit (QIAGEN, Hilden, Germany). Real time quantitative PCR was performed with SYBR Green (Bio-Rad, Hercules, Calif.). […]

HSV-1 [5] = experiment: Ex vivo HSV-1 infection of explanted rabbit corneas, qPCR of viral genome; settings: for viral genome replication in corneal epithelium (qPCR): 1×10^4 PFU/cornea, 10 μM
Protocol: as §3, §4
Human corneas were obtained from the Lions Eye Bank of Delaware Valley. Rabbit corneas were excised from intact fresh eyeballs of young (8-12 weeks) albino rabbits (Pel-Freez Biologicals, Rogers, Ark.). The protocol (Alekseev et al., 2012, J. Vis. Exp. e3631) for ex vivo corneal culture and infection was followed, and treatment was administered immediately after infection. Briefly, corneoscleral buttons were excised and rinsed in PBS containing 200 U/ml penicillin and 200 μg/ml streptomycin. The endothelial concavity was filled with culture medium containing 1% low melting temperature agarose. The corneas were cultured epithelial side up in MEM medium supplemented with non-essential amino acids (1×), 2 mM […], 200 U/ml penicillin, and 200 μg/ml streptomycin. The next day, they were infected with 1×10^4 PFU/cornea of strain KOS HSV-1 for 1 hour, rinsed, and overlaid with fresh medium. Drug treatments were administered at the same concentrations as for cultured cells. […]
as §5

Row | SMILES | cytopathic effect (CPE) of HSV-1 (HSV-1 [1]) | generation of infectious viral particles (plaque assay) (HSV-1 [2]; MOI 0.1, 10 μM, vs controls) | viral genome replication (qPCR) (HSV-1 [3]; hTCEpi cells) | viral genome levels (qPCR) at high viral load (HSV-1 [3]; hTCEpi cells, MOI 5, 10 μM) | difference in viral genome levels versus positive controls treated with PAA (HSV-1 [4]; human corneas, 10 μM, PAA 400 μg/ml) | viral genome replication in corneal epithelium (qPCR) (HSV-1 [4]; human corneas, 10 μM) | HSV-1 inhibition in rabbit compared with human corneas (HSV-1 [5]; Chk2 inhibitor II 10 μM, 48 hpi) | HSV-1 growth following the removal of inhibitor (HSV-1 [5]; rabbit corneas, 10 μM for 48 hours, then inhibitor-free medium) | time to which the effect of inhibition was maintained (HSV-1 [5]; rabbit corneas, 10 μM for 48 hours, then inhibitor-free medium for 48 hours, latest time point tested) [hpi] | viral genome replication in corneal epithelium (qPCR) (HSV-1 [5]; rabbit corneas, 48 hpi) | inhibition of infectious particle production (plaque assay) (HSV-1 [2]; MOI 0.1, KU-55933 10 μM, 20 hpi) | effect of addition on the dose-response curve of the partner drug (HSV-1 [3]; hTCEpi, MOI 0.1, KU-55933 0-7 μM with acyclovir 0-1.5 μg/mL, 16 hpi) | effect on viral genome replication, human compared with rabbit corneas (HSV-1 [4]; KU-55933 10 μM)
1 | NC(=O)c1ccc2[nH]c(-c3ccc(Oc4ccc(Cl)cc4)cc3)nc2c1 [Chk2 inhibitor II, 2-(4-(4-chlorophenoxy)phenyl)-1H-benzimidazole-5-carboxamide] | almost completely eliminated | reduction | profoundly reduced | reduced yet still substantial decrease | no statistical significance | did not support productive infection | slightly less potent | resume normal growth | ≥ 96 | did not support productive infection | – | – | –
2 | O=c1cc(-c2cccc3c2Sc2ccccc2S3)oc(N2CCOCC2)c1 [KU-55933, 2-(morpholin-4-yl)-6-(thianthren-1-yl)-pyran-4-one] | prevented | – | sharp reduction | – | – | greatly reduced | – | – | – | greatly reduced | greater than 10,000 fold | shifted the acyclovir dose-response curve to the left | more pronounced in human corneas
